Patent US10258697B2, “Efficient delivery of therapeutic molecules in vitro and in vivo” (Massachusetts Eye and Ear Infirmary, priority 2014, dated 2019)
No end group written: not given here.

Legend:
BSR.LNL.tdTomato cells [1] = assay: Toxicity of aurein 1.2 variants fused to +36 GFP-Cre; assay type: cell-based, hamster; conditions: 250 nM
Text: FIGS. 16A, 16B are graphs showing the activity and cytotoxicity of aurein 1.2 variants fused to +36 GFP-Cre (FIG. 16A). […] (FIG. 16B) Toxicity as determined by CELLTITERGLO (Promega) assay.

BSR.LNL.tdTomato cells [2] = assay: Cre delivery assay with expressed fusion proteins (flow cytometry); assay type: cell-based, hamster; conditions: 250 nM, compared with unmutated aurein 1.2-+36 GFP-Cre
Experimental: (§1) FIGS. 15A, 15B are graphs showing the efficacy and toxicity of recombinant expression fusions of aurein 1.2 (“E”) and citropin 1.3 (“U”). […] The percentage of tdTomato positive cells was determined by flow cytometry. Protein fusions were delivered at 125 nM, 250 nM, 500 nM, and 1 μM. […] Protein fusions were delivered at 125 nM, 250 nM, 500 nM, and 1 μM. […] Cells were treated with 250 nM protein for 4 h in serum-free media. Cells were washed and supplanted with full DMEM and incubated for 48 h. Error bars represent the standard deviation of three independent biological replicates.
(§2) Uptake and delivery assays for Cre fusion proteins were performed as previously described (Cronican, J. J.; et al. ACS Chemical Biology 2010, 5, 747). Briefly, proteins were diluted in serum-free DMEM and incubated on the cells in 48-well plates for 4 h at 37° C. Following incubation, the cells were washed three times with PBS+20 U/mL heparin. The cells were incubated a further 48 h in serum-containing media prior to trypsinization and analysis by flow cytometry. All flow cytometry were carried out on a BD Fortessa flow cytometer (Becton-Dickinson) using 530/30 nm and 610/20 nm filter sets. […] Toxicity for alanine scan mutational analysis was determined with LIVE/DEAD fixable far-red dead cell stain (Life Technologies) with 635 nm laser and 670/30 nm filter.

[3] = test system: cochlear hair cells of Rosa-tdTomato f/f (floxP-tdTomato) mice; assay: Supercharged GFP-Cre delivery to hair cells of tdTomato reporter mouse cochlea in vivo; conditions: for hair cells tdT-labeled: near the injection site (base turn of cochlea)
Experimental: FIGS. 10A and 10B show the in vivo delivery of Cre recombinase to hair cells in the mouse inner ear. FIG. 10A: The scala media (cochlear duct) of P0 floxP-tdTomato mice (n=4) were injected with 0.3 μL of 23 μM (−30)GFP-Cre in 50% RNAiMAX or with RNAiMAX alone (control). After 5 days, tdTomato expression indicative of Cre-mediated recombination was visualized using immunohistology. Red=tdTomato; green=Myo7a; white=Sox2; blue=DAPI. Yellow brackets indicate the outer hair cell (OHC) region. […] Red=tdTomato; green=Esp, white=Sox2; blue=DAPI, Scale bars: 10 μm.
P1 floxP-tdTomato mice (The Jackson Laboratory) were used for (−30)GFP-Cre injection and P2 Atoh1-GFP mice (Dr. J Johnson, Southwestern Medical Center, University of Texas) were used for Cas9:sgRNA injection. Animals were used under protocols approved by the Massachusetts Eye & Ear Infirmary ALCUC committee. Mice were anesthetized by lowering their temperature on ice. Cochleostomies were performed by making an incision behind the ear to expose the cochlea. Glass micropipettes held by a micromanipulator were used to deliver the complex into the scala media, which allows access to inner ear hair cells. For delivery of (−30)GFP-Cre, 3 μL of 45 μM protein was mixed with 3 μL of either RNAiMAX or Lipofectamine 2000 and incubated at room temperature for 30 minutes prior to injection. Four mice were injected per treatment group. […]
5-10 days after injection, the mice were sacrificed and cochlea were harvested by standard protocols. […] To quantify the number of tdTomato positive cells after (−30)GFP-Cre or GFP negative cells after Cas9:sgRNA delivery, the total number of outer hair cells were counted in a region spanning 200 μm around the site of injection in the base turn of the cochlea. The efficiency of (−30)GFP-Cre-induced recombination or Cas9:sgRNA-induced genome modification was calculated as the percentage of outer hair cells that expressed tdTomato or that lost GFP expression. […]

mouse retina = conditions: +36 GFP-Cre alone; cited from earlier work
[4] = test system: inner ear cell types (IHC, OHC, SC) of Rosa-tdT mouse; assay: (+36)-GFP-aurein-Cre injection into P3 Rosa-tdT mouse inner ear by cochleostomy; assay type: in vivo; conditions: 50 μM
Experimental: FIGS. 11A-11E show the high efficiency of protein delivery mediated by aurein in the inner ear in vivo. […] FIG. 11E: In Opti-MEM injected control mice no tdT labeling was detected in any inner ear cells. Scale bars: 10 μm.
It was next tested whether Aurein, an antimicrobial peptide, in combination with s-GFP, can serve as an effective carrier to deliver functional proteins into mouse inner ear cell types with high efficiency. (+36)-GFP-aurein-Cre was injected with different concentrations into P3 Rosa-tdT mouse inner ear by cochleostomy in vivo. The tissues were harvested 5 days later for immunolabeling to identify tdT^+ inner ear cell types. […] At 22.5 μM, 58% of OHC and 75% of IHC, as well as 8% of SC were tdT^+. At the highest 50 μM, 96% of OHC, 88% of IHC and 19% of SC were tdT^+. Some spiral ganglion neurons were also tdT at 22.5 and 50 μM (FIGS. 11A-11E and FIG. 12).

BSR.LNL.tdTomato cells [5] = assay: ATP-dependent cell viability assay (CELLTITER-GLO); conditions: 1 μM, 48 h after treatment
Experimental: as §1
as §2, with “cytometry.” for “cytometry. All flow cytometry were carried out on a BD Fortessa flow cytometer (Becton-Dickinson) using 530/30 nm and 610/20 nm filter sets.”
Next, the toxicity of each fusion protein was evaluated at a range of concentrations (125 nM to 1 μM) using an ATP-dependent cell viability assay at 48 h after treatment.

BSR.LNL.tdTomato cells [6] = assay: Primary screen for cytosolic delivery of Cre recombinase (fluorescence image analysis); assay type: cell-based, hamster; conditions: for level of recombination of sortase-conjugated peptide-(+36 GFP)-Cre: 250 nM, primary screen
Experimental: Initial screen of 20 peptide-(+36 GFP)-Cre conjugated proteins. Cytosolic Cre delivery results in recombination and tdTomato expression. The percentage of tdTomato positive cells was determined by fluorescence image analysis. […] Cells were washed and supplanted with full DMEM and incubated for 48 h. Error bars represent the standard deviation of three independent biological replicates.
BSR.LNL.tdTomato cells were plated at 10,000 cells per well in black 384-well plates (Aurora Biotechnologies). […] Following incubation, the cells were washed three times with PBS+20 U/mL heparin. The cells were incubated a further 48 h in serum-containing media. Cells were fixed in 3% paraformaldehyde and stained with Hoescht 33342 nuclear dye. […] Images were exposed for 10 ms in the DAPI channel (Hoechst) and 500 ms in the dsRed channel (tdTomato). Image analysis was performed using the cell-scoring module of MetaXpress software (Molecular Devices). All nuclei were detected with a minimum width of 1 pixel, maximum width of 3 pixels, and an intensity of 200 gray levels above background. Positive cells were evaluated for uniform signal in the dsRed channel (minimum width of 5 pixels, maximum width of 30 pixels, intensity >200 gray levels above background, 10 μm minimum stained area). In total, nine images were captured and analyzed per well, and 16 wells were treated with the same fusion protein. The primary screen was completed in biological triplicate.
Because Cre recombinase must enter the cell, escape endosomes, enter the nucleus, and catalyze recombination to generate tdTomato fluorescence, this assay reflects the availability of active, non-endosomal recombinase enzyme that reaches the nucleus.
The reporter BSR.LNL.tdTomato cells were incubated with 250 nM of each peptide-(+36 GFP)-Cre protein in serum-free media.

[7] = test system: cochlear inner hair cells, outer hair cells and supporting cells; assay type: in vivo
Experimental: 0.4 μL of 50 μM+36 GFP-Cre or aurein 1.2-+36 GFP-Cre were injected into the scala media. […] Inner hair cells (IHC), outer hair cells (OHC) and supporting cells in the sensory epithelium (SE) were imaged for the presence of tdTomato, which is only expressed following Cre-mediated recombination. Hair cells were labeled with antibodies against the hair-cell marker Myo7a.
P1-2 Gt(ROSA)26Sor^tm14(CAG-tdTomato)Hze mice were used for aurein 1.2-+36-GFP-Cre and +36-GFP-Cre injection. The Rosa26-tdTomato mice were from the Jackson Laboratory. Animals were used under protocols approved by the Massachusetts Eye & Ear Infirmary IACUC committee. Mice were anesthetized by hypothermia on ice. Cochleostomies were performed by making an incision behind the ear to expose the cochlea. Glass micropipettes held by a micromanipulator were used to deliver the complex into the scala media, which allows access to inner ear hair cells. The total delivery volume for every injection was 0.4 μL per cochlea and the release was controlled by a micromanipulator at the speed of 69 nL/min.
To quantify the number of tdTomato positive cells after aurein 1.2-+36-GFP-Cre and +36-GFP-Cre, we counted the total number of inner and outer hair cells in a region spanning 100 μm in the apex, middle, and base turn of the cochlea.
Both the hair cells (Myo7a+) and supporting cells (Myo7a−) were evaluated for td Tomato signal.

[8] = test system: glucocorticoid receptor (GR-mCherry) in HeLa cells; assay: GR-mCherry translocation assay; assay type: cell-based; conditions: 1 μM for 30 min, HeLa cells expressing GR-mCherry
Experimental: One day prior to transfection 10,000 HeLa cells in 200 μL of DMEM (10% FBS, 1× Pen-Strep) were plated into single wells of a 96-well MATRICAL glass bottom microplate (MGB096-1-2-LG-L) and allowed to adhere overnight. The following day, cells were transfected with GRmCherry using LIPOFECTAMINE® 2000 technologies. Following transfection, cells were allowed to recover overnight in DMEM (+10% FBS). The following day, cells were treated with dexamethasone (Dex) or 1 μM Dex-protein conjugate in the presence or absence of inhibitor diluted into DMEM (without phenol red, +300 nM Hoescht33342). After 30 min, cells were washed twice with 200 μL of HEPES-Krebs-Ringer's (HKR) buffer (140 mM NaCl, 2 mM KCl, 1 mM CaCl2, 1 mM MgCl2, and 10 mM HEPES at pH 7.4), after which 100 μL of HKR buffer was overlaid onto the cells and images were acquired on a Zeiss Axiovert 200M epifluorescence microscope outfitted with Ziess AxiocammRM camera and an EXFO-Excite series 120 Hg arc lamp. The translocation ratio (the ratio of median […] intensity in the nuclear and surrounding regions) for individual cells was measured using CELLPROFILER® as described 36. […]
Although endosomal escape is widely considered to be the major bottleneck of cationic protein delivery (Sahay, G.; et al. Nature Biotechnology 2013, 31, 653), few assays quantify the ability of proteins to escape endosomes on a single-cell basis.

GLFDIIKKIAEAF [S12A, aurein 1.2 variant expressed as fusion with +36 GFP-Cre]
toxicity of aurein 1.2 variants (BSR.LNL.tdTomato cells [1]): increased toxicity | recombination efficiency of aurein 1.2 variants fused to +36 GFP-Cre (BSR.LNL.tdTomato cells [2]): potentially improved overall recombination efficiency

(−30)GFP-Cre: negatively supercharged GFP fused to Cre recombinase, SEQ ID NO: 4
hair cells tdT-labeled [3]: ~30% | stereocilia of tdTomato-positive outer hair cells ([3]; ten days after delivery, 23 μM in 50% RNAiMAX, P0 floxP-tdTomato mice): intact espin (Esp)-expressing stereocilia

+36 GFP-Cre: superpositively charged GFP fused to Cre recombinase, SEQ ID NO: 1
recombination in mouse retina (mouse retina): modest levels of recombination | tdT labeling of cochlear cell types [4]: very few IHC and HC were labeled with tdT | hair cells tdT-labeled [3]: ~30% | cell viability (BSR.LNL.tdTomato cells [5]): 85% | recombined cells with chloroquine (positive control) (BSR.LNL.tdTomato cells [6]; 250 nM protein incubated with 100 μM chloroquine): 48% | cells expressing tdTomato (recombined cells) (BSR.LNL.tdTomato cells [6]; 250 nM protein, 4 h serum-free media, then 48 h): 4.5% | Cre-mediated recombination in inner hair cells (IHC) ([7]; apex, 50 μM): 4.4%

GLFDIIKKIAESF [aurein 1.2]
level of recombination of sortase-conjugated peptide-(+36 GFP)-Cre (BSR.LNL.tdTomato cells [6]): highest level of recombination | potency of Cre delivery into cochlear hair cells when fused with aurein 1.2 vs absence of the peptide ([7]; live mice): > 20 fold

GLFDIIKRIAESF [K8R, aurein 1.2 variant expressed as fusion with +36 GFP-Cre]
toxicity of aurein 1.2 variants (BSR.LNL.tdTomato cells [1]): increased toxicity | recombination efficiency of aurein 1.2 variants fused to +36 GFP-Cre (BSR.LNL.tdTomato cells [2]): potentially improved overall recombination efficiency

GLFDIIKKVASVIGGL (listed as Litoria citropa) [citropin 1.3]
level of recombination of sortase-conjugated peptide-(+36 GFP)-Cre (BSR.LNL.tdTomato cells [6]): moderate level of recombination

Arg8^Dex: canonical cell permeable peptide (SEQ ID NO: 102), dexamethasone-labeled positive control (RRRRRRRR; also: dexamethasone label)
nuclear-to-cytoplasm translocation ratio (TR) [8]: 1.63
